Assay results from ChEMBL document CHEMBL1131804, “Synthesis of delta4-beta-D-glucopyranosiduronic acids as mimetics of 2,3-unsaturated sialic acids for sialidase inhibition” (Bioorg Med Chem Lett, 1999).

Columns and labels:
influenza virus a = assay: Inhibitory activity against influenza virus A(N9) sialidase at a concentration of 0.1 mM
[1] = Inhibitory activity against Vibrio cholerae sialidase
Clostridium perfringens = assay: Inhibitory activity against sialidase from Clostridium perfringens at a concentration of 0.1 mM
[2] = Inhibitory activity against influenza virus A(N9) sialidase
Vibrio cholerae = assay: Inhibitory activity against Vibrio cholerae sialidase at a concentration of 0.1 mM
[3] = test system: Salmonella enterica subsp. enterica serovar Typhimurium; assay: Inhibitory activity sialidase from Salmonella Typhimurium at a concentration of 0.1 mM
Crassostrea virginica = assay: Inhibitory activity against KDN-sialidase from Crassostrea virginica at a concentration of 1 mM

SMILES	inhibition (influenza virus a)	Ki [1]	inhibition (Clostridium perfringens)	Ki [2]	inhibition (Vibrio cholerae)	inhibition [3]	inhibition (Crassostrea virginica)
CC(=O)NC1C(O)C=C(C(=O)O)OC1OC(C)C (stereo unspecified)	100%	120 µM	24%	2.7 µM	25%	24%	
CC(C)OC1OC(C(=O)O)=CC(O)C1O (stereo unspecified)							6%
O=C(O)C1=CC(O)C(O)C([C@H](O)[C@H](O)CO)O1 (stereo partly specified)							95%
CC(=O)N[C@H]1[C@H]([C@H](O)[C@H](O)CO)OC(C(=O)O)=C[C@@H]1O [NEU5AC2EN]		3.4 µM		1.3 µM			20%
